Laboratory results taken from US20130123261A1, “ISOXAZOLINE COMPOUNDS IN TYPE 2 DIABETES AND OTHER MALADIES” (CPSI STOCKHOLDER TRUST, priority 2009, published 2013).

System: STZ-induced NIDDM in outbred ICR mice
Experiment: Effect of orally administered MIF antagonist on STZ-induced NIDDM in ICR mice
Assay type: in vivo
Conditions: for blood glucose levels: STZ 90 mg/Kg i.p., oral, daily single dose for 30 days; for blood glucose levels / serum levels of inflammatory cytokines / pro-inflammatory cytokine production: dose not stated
Description: ICR, MIF−/− BALB/c and BALB/c mice were fasted 20 hr before induction of diabetes with a single i.p. injection of STZ 90 mg/Kg (for ICR mice) or 130 mg/kg (for BALB/c mice) (Sigma, St. Louis, Mo., U.S.A.) freshly dissolved in 0.05 M citrate buffer, pH 4.5 following the protocol previously reported (13;14). Normal mice of each strain were injected with equivalent volume of citrate buffer as negative controls.
Blood samples from WT and MIF−/− mice were collected at 0, 1, 2, 4, 6, 8, and 10 weeks after STZ injection by tail snipping. Serum glucose levels were determined using Accu-Chek® glucometer. Body weights were measured immediately before blood collection. The animals were kept in individual metabolic cages for 24 hrs and provided with drinking water (100 ml) and food (75 g). The water and food consumption as well as urine output over a 24 hr period was determined. This process was repeated every week until 10 weeks after STZ induction.
Following administration of STZ, blood was collected at 1-week intervals by tail snips. Levels of TNF-α, IL-1β, IL-6, IL-4, IL-10, resistin (all from Peprotech, Mexico), and insulin (Lincon, St. Charles, Mo.) in sera were determined by ELISA as per the manufacturer's instructions.
Age and sex-matched ICR mice were fasted for 20 hrs and then injected i.p. with STZ (90 mg/Kg). Six-hours later following STZ injection mice were administered CSP1306 or PBS daily in a single dose orally for 30 days. Blood was collected by tail snipping once every week to measure glucose levels using Accu-Chek® glucometer and to determine cytokine levels by ELISA as described above. CPSI 1306 has the following formula: […]
NIDDM was induced in ICR mice by a single intraperitoneal injection of STZ (90 mg/kg). On day 5 post-STZ injection and thereafter mice were orally administered CPSI-1306 (1 mg/kg or 0.1 mg/Kg) daily for 30 days. Mice were bled once a week by tail sniping and levels of glucose (A) and inflammatory cytokines IL-6 (B) and TNF-α (C) in the blood were determined. The data are from one representative experiment out of three. * p<0.05.

[1] = ICR mice with STZ injection, 0.1 and 0.01 mg/kg
[2] = ICR mice, STZ-induced NIDDM, oral administration, ELISA

O=C(C[C@H]1CC(c2ccc(F)cc2F)=NO1)N1CCOCC1 [CPSI-1306]
blood glucose [1]: significant reduction
polyuria [1]: less polyuria
serum levels of inflammatory cytokines [1]: significant reduction
severity of NIDDM [1]: reduced severity of NIDDM
blood glucose levels after stoppage of treatment (ICR mice with STZ injection, after stoppage of treatment, data not shown): spike in blood glucose levels
blood glucose levels (ICR mice, listed as CSP156): significant drop
blood glucose levels (ICR mice, listed as CSP1306): significantly lowered blood glucose levels in majority of animals
blood glucose levels (ICR mice, listed as CSPI-1306): highly effective
level of pro-inflammatory cytokine IL-6 in the sera [2]: significant reduction
level of pro-inflammatory cytokine TNF-α in the sera [2]: significant reduction
serum levels of inflammatory cytokines / pro-inflammatory cytokine production (ICR mice, STZ-induced NIDDM, oral administration, listed as CSP156): reduction in serum levels of inflammatory cytokines
serum levels of inflammatory cytokines / pro-inflammatory cytokine production (ICR mice, STZ-induced NIDDM, oral administration, listed as CSPI-1306): highly effective in suppressing pro-inflammatory cytokine production
severity and progression of STZ-induced NIDDM (FIG. 6) (outbred ICR mice, STZ 90 mg/kg i.p., oral 1 mg/kg or 0.1 mg/Kg daily for 30 days from day 5 post-STZ): Significantly Reduces Severity and Progression
